The values below come from PMC4459817, “Vasculotide reduces endothelial permeability and tumor cell extravasation in the absence of binding to or agonistic activation of Tie2” (EMBO Molecular Medicine, 2015).

The test concerns mouse Tie2-Fc (extracellular domain of Tie2). The test can be described thus: pull-down assay, mouse Tie2-Fc. In kind it is binding. To be noted: mouse Tie2-Fc on protein A sepharose; rhAng1 20 ng or VT 100 ng, pH 7.4, 4°C; Fig9A,B. An excerpt:
To better understand the difficulties we had in observing Tie2 activation by VT, we sought to characterize the binding affinity and kinetics of VT to Tie2. Purified human or mouse Tie2-Fc (i.e., Fc-conjugated extracellular domains of Tie2) were first coupled to protein A sepharose beads for pull-down experiments (Fig9A and B) or immobilized on a Biacore CM5 sensor chip for surface plasmon resonance (SPR) experiments (Fig9C and Supplementary Fig S3).
Figure 9 Binding of Vasculotide vs. Ang1 variants to the extracellular domain of Tie2 • A–B Pull-down assay. Input ligands—rhAng1 (A) and VT (B)—were incubated with either protein A sepharose beads only, bead-conjugated mouse Tie2-Fc (mTie2), or bead-conjugated human Tie2-Fc (hTie2). […] The ‘unbound’ fraction is 7% of residual/free ligands remaining in the supernatant. • C Quantitative kinetics analysis by SPR. All analytes were run at increasing concentrations of 0.625, 1.25, 2.5, 5, and 10 nM, at 37°C and pH 7.4. […] Source data are available online for this figure. […]
Semi-quantitative densitometry analysis of immunoblots was performed using the ChemiGenius2 bioimaging system and GeneSnap/GeneTools software (Syngene). […]

Consider “CHHHRHSF [Vasculotide, 4-armed maleimide-functionalized polyethylene glycol (PEG) backbone to link together four cysteine-capped T7 peptides, that is, CHHHRHSF]”, for which the “pull-down by Tie2-Fc” value is “did not pull down any appreciable levels”.

B1: recombinant human Ang1 (rhAng1) (ligand, UniProt Q15389 16-498, looked up)
chain: HIGCSNQRRSPENSGRRYNRIQHGQCAYTFILPEHDGNCRESTTDQYNTNALQRDAPHVEPDFSSQKLQHLEHVMENYTQWLQKLENYIVENMKSEMAQIQQNAVQNHTATMLEIGTSLLSQTAEQTRKLTDVETQVLNQTSRLEIQLLENSLSTYKLEKQLLQQTNEILKIHEKNSLLEHKILEMEGKHKEELDTLKEEKENLQGLVTRQTYIIQELEKQLNRATTNNSVLQKQQLELMDTVHNLVNLCTKEGVLLKGGKREEEKPFRDCADVYQAGFNKSGIYTIYINNMPEPKKVFCNMDVNGGGWTVIQHREDGSLDFQRGWKEYKMGFGNPSGEYWLGNEFIFAITSQRQYMLRIELMDWEGNRAYSQYDRFHIGNEKQNYRLYLKGHTGTAGKQSSLILHGADFSTKDADNDNCMCKCALMLTGGWWFDACGPSNLNGMFYTAGQNHGKLNGIKWHYFKGPSYSLRSTTMMIRPLDF
notes: angiopoietin-1, human, recombinant; also called angiopoietin-1; source: bought: R&D Systems (named for the Boyden chamber experiments)
With B1, the “pull-down by Tie2-Fc” value is listed as “effectively pulled down the majority”.
